# pIC50: −log10 of the molar value.
# Target: T1, pSTAT3 (pY705-STAT3) (Homo sapiens, UniProt P40763)
# T1 construct: host or cells: cryopreserved PBMC
# Test: MSD-pSTAT-PBMC Assay (pSTAT3, IL-6 stimulated)
# Format: cell-based
# Settings: not given
# Procedure, shortened: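 Phospho-STAT levels captured on anti-STAT3 or anti-STAT6 plates and detected with anti-pY705 or anti-pY641 antibodies (MSD read-out). Cryopreserved human PBMCs received compound for 3 h before a 10 min pulse of IL-6 (10 ng/mL, STAT3) or IL-4 (1 ng/mL, STAT6). IC50 fitted after unstimulated-background subtraction and DMSO normalization.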
# T1 sequence (P40763 whole entry): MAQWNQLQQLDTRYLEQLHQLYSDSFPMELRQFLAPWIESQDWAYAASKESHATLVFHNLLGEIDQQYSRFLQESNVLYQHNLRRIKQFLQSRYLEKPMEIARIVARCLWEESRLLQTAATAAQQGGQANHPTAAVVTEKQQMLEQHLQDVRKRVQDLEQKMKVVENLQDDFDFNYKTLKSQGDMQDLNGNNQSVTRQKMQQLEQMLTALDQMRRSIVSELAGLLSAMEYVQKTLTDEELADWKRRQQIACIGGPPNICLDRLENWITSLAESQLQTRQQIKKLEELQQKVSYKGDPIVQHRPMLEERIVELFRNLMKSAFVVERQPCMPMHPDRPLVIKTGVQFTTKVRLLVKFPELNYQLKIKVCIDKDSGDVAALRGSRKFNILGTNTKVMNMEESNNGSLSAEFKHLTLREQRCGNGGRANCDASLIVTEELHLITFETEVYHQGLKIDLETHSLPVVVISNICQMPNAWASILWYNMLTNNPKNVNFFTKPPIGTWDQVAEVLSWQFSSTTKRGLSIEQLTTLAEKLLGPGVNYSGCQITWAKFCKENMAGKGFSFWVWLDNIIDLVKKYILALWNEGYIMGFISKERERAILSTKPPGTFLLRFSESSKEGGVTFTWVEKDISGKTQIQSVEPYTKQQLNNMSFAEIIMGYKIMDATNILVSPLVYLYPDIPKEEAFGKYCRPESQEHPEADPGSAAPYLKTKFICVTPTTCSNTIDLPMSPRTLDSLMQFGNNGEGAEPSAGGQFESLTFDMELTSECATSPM
row,SMILES,pIC50
1,"CCCOC(=O)[C@H](C)NP(=O)(Oc1ccccc1)C(F)c1ccc2sc(C(=O)N[C@H]3C[C@H]4C[C@H]4C[C@H]4CC[C@@H](C(=O)N[C@H]5CN(C(C)=O)C[C@@H]5F)N4C3=O)cc2c1 (stereo partly drawn) [Compound 255, propyl(((2-(((3S,6S,7aR,8aS,9aR)-3-(((3S,4S)-1-acetyl-4-fluoropyrrolidin-3-yl)carbamoyl)-5-oxodecahydro-1H-cyclopropa[d]pyrrolo[1,2-a]azocin-6-yl)carbamoyl)benzo[b]thiophen-5-yl)fluoromethyl)(phenoxy)phosphoryl)-L-alaninate]",6.00 to 7.00
2,"CCCOC(=O)[C@H](C)NP(=O)(Cc1ccc2sc(C(=O)N[C@H]3C[C@H]4C[C@H]4C[C@H]4CC[C@@H](C(=O)N5CC(c6cnccc6N(C)C)C5)N4C3=O)cc2c1)Oc1ccccc1 (stereo partly drawn) [Compound 397, propyl(((2-(((3S,6S,7aR,8aS,9aR)-3-(3-(4-(dimethylamino)pyridin-3-yl)azetidine-1-carbonyl)-5-oxodecahydro-1H-cyclopropa[d]pyrrolo[1,2-a]azocin-6-yl)carbamoyl)benzo[b]thiophen-5-yl)methyl)(phenoxy)phosphoryl)-L-alaninate]",> 7.00
3,"O=C(N[C@H]1C[C@@H]2C[C@@H]2C[C@H]2CC[C@@H](C(=O)N3CC(C(=O)N4CCOCC4)C3)N2C1=O)c1cc2cc(C(F)(F)P(=O)(N[C@@H](CCc3ccccc3)C(=O)OCc3ccccc3)Oc3ccccc3)ccc2s1 (stereo partly drawn) [Compound 159, benzyl (2S)-2-(((difluoro(2-(((3S,6S,7aS, 8aR,9aR)-3-(3-(morpholine-4-carbonyl)azetidine-1-carbonyl)-5-oxodecahydro-1H-cyclopropa[d]pyrrolo[1,2-a]azocin-6-yl)carbamoyl)benzo[b]thiophen-5-yl)methyl) (phenoxy)phosphoryl)amino)-4-phenylbutanoate]",< 5.52
4,"CCCOC(=O)[C@H](C)NP(=O)(Oc1ccccc1)C(F)c1ccc2sc(C(=O)N[C@H]3C[C@@H]4C[C@@H]4C[C@H]4CC[C@@H](C(=O)N5CC(N6CCS(=O)(=O)CC6)C5)N4C3=O)cc2c1 (stereo partly drawn) [Compound 310, propyl(((2-(((3S,6S,7aS,8aR,9aR)-3-(3-(1,1-dioxidothiomorpholino)azetidine-1-carbonyl)-5-oxodecahydro-1H-cyclopropa[d]pyrrolo[1,2-a]azocin-6-yl)carbamoyl)benzo[b]thiophen-5-yl)fluoromethyl)(phenoxy)phosphoryl)-L-alaninate]",< 5.52

# Same assay, conditions: PBMC, compound 3 hrs, then 10 ng/mL IL-6 for 10 min; MSD pY705-STAT3; read-out: pSTAT3
row,SMILES,pIC50
1,"CC(C)(C)C(=O)SCCOP(=O)(OCCSC(=O)C(C)(C)C)C(F)(F)c1ccc2sc(C(=O)N[C@H]3C[C@@H]4C[C@@H]4C[C@H]4CC[C@@H](C(=O)N5CC(c6cnccc6F)C5)N4C3=O)cc2c1 [Compound 308, S,S′-((((difluoro(2-(((3S,6S,7aS,8aR,9aR)-3-(3-(4-fluoropyridin-3-yl)azetidine-1-carbonyl)-5-oxodecahydro-1H-cyclopropa[d]pyrrolo[1,2-a]azocin-6-yl)carbamoyl)benzo[b]thiophen-5-yl)methyl)phosphoryl)bis(oxy))bis(ethane-2,1-diyl))bis(2,2-dimethylpropanethioate)]",> 7.00
2,"CCCOC(=O)[C@H](C)NP(=O)(Oc1ccccc1)C(F)c1ccc2sc(C(=O)N[C@H]3C[C@H]4C[C@H]4C[C@H]4CC[C@@H](C(=O)N[C@H]5CN(c6cccnc6)C[C@@H]5F)N4C3=O)cc2c1 (stereo partly drawn) [Compound 268, propyl ((fluoro(2-(((3S,6S,7aR,8aS,9aR)-3-(((3S,4S)-4-fluoro-1-(pyridin-3-yl)pyrrolidin-3-yl)carbamoyl)-5-oxodecahydro-1H-cyclopropa[d]pyrrolo[1,2-a]azocin-6-yl)carbamoyl)benzo[b]thiophen-5-yl)methyl)(phenoxy)phosphoryl)-L-alaninate]",> 7.00
3,"CC(C)OC(=O)OCOP(=O)(Cc1ccc2sc(C(=O)N[C@H]3C[C@H]4C[C@H]4C[C@H]4CC[C@@H](C(=O)N[C@@H]5CCN(c6cccnc6)C5)N4C3=O)cc2c1)OCOC(=O)OC(C)C [Compound 226, diisopropyl (((((2-(((3S,6S,7aR, 8aS,9aR)-5-oxo-3-(((R)-1-(pyridin-3-yl)pyrrolidin-3-yl)carbamoyl)decahydro-1H-cyclopropa[d]pyrrolo[1,2-a]azocin-6-yl)carbamoyl)benzo[b]thiophen-5-yl)methyl)phosphoryl)bis(oxy))bis(methylene)) bis(carbonate)]",> 7.00
4,"CCCOC(=O)[C@H](C)N[P@@](=O)(Oc1ccccc1)[C@H](F)c1ccc2sc(C(=O)N[C@H]3C[C@H]4C[C@H]4C[C@H]4CC[C@@H](C(=O)N5CC(c6cnccc6N(C)C)C5)N4C3=O)cc2c1 [Compound 398, propyl((R)-((S)-(2-(((3S,6S,7aR,8aS,9aR)-3-(3-(4-(dimethylamino)pyridin-3-yl)azetidine-1-carbonyl)-5-oxodecahydro-1H-cyclopropa[d]pyrrolo[1,2-a]azocin-6-yl)carbamoyl)benzo[b]thiophen-5-yl)fluoromethyl)(phenoxy)phosphoryl)-L-ananinate]",> 7.00
5,"CC(C)OC(=O)[C@H](C)NP(=O)(Cc1ccc2sc(C(=O)N[C@H]3C[C@@H]4C[C@@H]4C[C@H]4CC[C@@H](C(=O)N5CC(C(=O)N6CCOCC6)C5)N4C3=O)cc2c1)N[C@@H](C)C(=O)OC(C)C [Compound 147, diisopropyl 2,2′-((((2-(((3S,6S,7aS, 8aR,9aR)-3-(3-(morpholine-4-carbonyl)azetidine-1-carbonyl)-5-oxodecahydro-1H-cyclopropa[d]pyrrolo[1,2-a]azocin-6-yl)carbamoyl)benzo[b]thiophen-5-yl)methyl)phosphoryl)bis(azanediyl)) (2S,2′S)-dipropionate]",< 5.52
6,"CCCOC(=O)[C@H](C)NP(=O)(Oc1ccccc1)C(F)c1ccc2sc(C(=O)N[C@H]3C[C@@H]4C[C@@H]4C[C@H]4CC[C@@H](C(=O)N5CC(c6nc(C)no6)C5)N4C3=O)cc2c1 (stereo partly drawn) [Compound 360, propyl ((fluoro(2-(((3S,6S,7aS,8aR,9aR)-3-(3-(3-methyl-1,2,4-oxadiazol-5-yl)azetidine-1-carbonyl)-5-oxodecahydro-1H-cyclopropa[d]pyrrolo[1,2-a]azocin-6-yl)carbamoyl)benzo[b]thiophen-5-yl)methyl)(phenoxy)phosphoryl)-L-alaninate]",> 7.00
7,"CC(C)CC(=O)SCCOP(=O)(OCCSC(=O)CC(C)C)C(F)(F)c1ccc2sc(C(=O)N[C@H]3C[C@@H]4C[C@@H]4C[C@H]4CC[C@@H](C(=O)N5CC(c6ncccn6)C5)N4C3=O)cc2c1 [Compound 229, S,S′-((((difluoro(2-(((3S,6S,7aS, 8aR,9aR)-5-oxo-3-(3-(pyrimidin-2-yl)azetidine-1-carbonyl)decahydro-1H-cyclopropa[d]pyrrolo[1,2-a]azocin-6-yl)carbamoyl)benzo[b]thiophen-5-yl)methyl)phosphoryl)bis(oxy))bis(ethane-2,1-diyl)) bis(3-methylbutane thioate)]",> 7.00
8,"O=C(OCOP(=O)(Cc1ccc2sc(C(=O)N[C@H]3C[C@@H]4C[C@@H]4C[C@H]4CC[C@@H](C(=O)N5CC(C(=O)N6CCOCC6)C5)N4C3=O)cc2c1)OCOC(=O)OC1CCOCC1)OC1CCOCC1 [Compound 130, ((((2-(((3S,6S,7aS, 8aR,9aR)-3-(3-(morpholine-4-carbonyl)azetidine-1-carbonyl)-5-oxodecahydro-1H-cyclopropa[d]pyrrolo[1,2-a]azocin-6-yl)carbamoyl)benzo[b]thiophen-5-yl)methyl)phosphoryl)bis (oxy))bis (methylene) bis(tetrahydro-2H-pyran-4-yl) bis(carbonate)]",< 5.52
9,"CCCOC(=O)[C@H](C)NP(=O)(Oc1ccccc1)C(F)c1ccc2sc(C(=O)N[C@H]3C[C@H]4C[C@H]4C[C@H]4CC[C@@H](C(=O)N5CC(c6cnccc6OC)C5)N4C3=O)cc2c1 (stereo partly drawn) [Compound 319, propyl ((fluoro(2-(((3S,6S,7aR,8aS,9aR)-3-(3-(4-methoxypyridin-3-yl)azetidine-1-carbonyl)-5-oxodecahydro-1H-cyclopropa[d]pyrrolo[1,2-a]azocin-6-yl)carbamoyl)benzo[b]thiophen-5-yl)methyl)(phenoxy)phosphoryl)-L-alaninate]",> 7.00
10,"CCCOC(=O)[C@H](C)NP(=O)(Oc1ccccc1)C(F)c1ccc2sc(C(=O)N[C@H]3C[C@@H]4C[C@@H]4C[C@H]4CC[C@@H](C(=O)N5CC(c6ncco6)C5)N4C3=O)cc2c1 (stereo partly drawn) [Compound 323, propyl ((fluoro(2-(((3S,6S,7aS,8aR,9aR)-3-(3-(oxazol-2-yl)azetidine-1-carbonyl)-5-oxodecahydro-1H-cyclopropa[d]pyrrolo[1,2-a]azocin-6-yl)carbmaoyl)benzo[b]thiophen-5-yl)methyl)(phenoxy)phosphoryl)-L-alaninate]",> 7.00
11,"CCOC(=O)[C@H](C)NP(=O)(Oc1ccccc1)C(F)(F)c1ccc2sc(C(=O)N[C@H]3C[C@@H]4C[C@@H]4C[C@H]4CC[C@@H](C(=O)N5CC(C(=O)N6CCOCC6)C5)N4C3=O)cc2c1 (stereo partly drawn) [Compound 192, ethyl ((difluoro(2-(((3S,6S,7aS, 8aR,9aR)-3-(3-(morpholine-4-carbonyl)azetidine-1-carbonyl)-5-oxodecahydro-1H-cyclopropa[d]pyrrolo[1,2-a]azocin-6-yl)carbamoyl)benzo[b]thiophen-5-yl)methyl) (phenoxy)phosphoryl)-L-alaninate]",< 5.52
12,"CCCOC(=O)C(C)NP(=O)(Oc1ccccc1)C(F)c1ccc2sc(C(=O)N[C@H]3C[C@@H]4C[C@@H]4C[C@H]4CC[C@@H](C(=O)N5C[C@H]6[C@@H]5CCN6c5cccnc5)N4C3=O)cc2c1 (stereo in doubt) [Compound 297, propyl ((fluoro(2-(((3S,6S,7aS,8aR,9aR)-5-oxo-3-((1S,5S)-2-(pyridin-3-yl)-2,6-diazabicyclo[3.2.0]heptane-6-carbonyl)decahydro-1H-cyclopropa[d]pyrrolo[1,2-a]azocin-6-yl)carbamoyl)benzo[b]thiophen-5-yl)methyl)(phenoxy)phosphoryl)-L-alaninate]",> 7.00
